This note sets out measurements from US9765022B2, “Disulfide compounds for delivery of pharmaceutical agents” (Tufts University, priority 2013, dated 2017).

In this test the test system is 4T1-12B breast tumors. The test is described as follows: In vivo cancer treatment, tumor growth inhibition. Also noted: species or system BALB/c mice. Conditions: tail-vein injection every three days, 5.5 mg/kg lipid and 330 μg/kg saporin. The procedure: Composition 31 (i.e., containing 1-O16B and saporin) and Composition 32 (i.e., containing 1-O18B and saporin) were tested for in vivo inhibiting tumor growth following the procedure described below. More specifically, BALB/c mice bearing 4T1-12B breast tumors were developed from a 4T1-12B cell suspension in DMEM supplemented with 10% FBS at a concentration of 10^7 cells/mL. An aliquot (100 μL) of the cell suspension was injected into the mammary fat pad of 4-6 week-old female BALB/c mice. The mice were sorted into four groups randomly (n=7 for treatment group, n=5 for control groups) seven days after the injection. The mice were injected through tail-vein every three days. For the treatment group, each mouse was injected with 5.5 mg/kg of 1-O16B or 1-O18B and 330 μg/kg of saporin. Tumor volumes were measured every three days.
PBS without 1-O16B, 1-O18B, and saporin was also injected as a control. Comparative studies were also conducted using saporin in PBS without 1-O16B and 1-O18B.

On to saporin, for which the tumor size result (Day 16) was “more than 120 mm^3” and the tumor size result (Day 22) was “more than 250 mm^3”.
